How the values were obtained:
hypothalamic slices = hypothalamic slices in vitro; cited from earlier work
Y4R = Y4R (Homo sapiens, UniProt P50391); assay: CaFlux Assay (FLIPR), Y4R; type: cell-based
Y1R = molecular target: T1, Y1R (Homo sapiens, UniProt P25929); assay: CaFlux Assay (FLIPR), Y1R; type: cell-based
T1 sequence (P25929 1-384): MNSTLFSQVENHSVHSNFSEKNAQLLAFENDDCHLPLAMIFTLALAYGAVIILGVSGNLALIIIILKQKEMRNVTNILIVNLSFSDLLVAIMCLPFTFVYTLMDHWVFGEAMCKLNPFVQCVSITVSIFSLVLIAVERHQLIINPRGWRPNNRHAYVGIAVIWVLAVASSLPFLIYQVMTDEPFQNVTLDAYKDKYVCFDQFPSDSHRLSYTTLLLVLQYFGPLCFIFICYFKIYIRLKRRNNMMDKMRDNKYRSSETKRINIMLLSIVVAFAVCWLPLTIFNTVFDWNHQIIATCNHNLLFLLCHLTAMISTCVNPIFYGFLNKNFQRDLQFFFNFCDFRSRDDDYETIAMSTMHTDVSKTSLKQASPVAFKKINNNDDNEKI

Y5R = molecular target: T2, Y5R (Homo sapiens, UniProt Q15761); assay: CaFlux Assay (FLIPR), Y5R; type: cell-based;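 on Emax: percent of the maximal response of the positive control agonist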
T2 sequence (Q15761 1-445): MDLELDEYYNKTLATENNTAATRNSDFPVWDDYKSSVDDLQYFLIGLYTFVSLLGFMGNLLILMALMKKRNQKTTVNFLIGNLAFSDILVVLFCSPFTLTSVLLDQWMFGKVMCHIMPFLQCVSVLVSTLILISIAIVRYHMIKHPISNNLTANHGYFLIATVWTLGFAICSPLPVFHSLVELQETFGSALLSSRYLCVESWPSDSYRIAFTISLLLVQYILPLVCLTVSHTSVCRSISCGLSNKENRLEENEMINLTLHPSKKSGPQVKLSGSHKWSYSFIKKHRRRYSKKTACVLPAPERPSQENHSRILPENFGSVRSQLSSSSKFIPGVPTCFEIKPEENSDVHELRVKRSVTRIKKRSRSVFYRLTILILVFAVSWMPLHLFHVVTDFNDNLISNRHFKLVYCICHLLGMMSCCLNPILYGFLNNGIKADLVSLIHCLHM

hNPY2R [1] = molecular target: T3, hNPY2R (Homo sapiens, UniProt P49146); assay: cAMP Agonist Assay, HEK293/hNPY2R cells; type: cell-based; parameters: expressed in transfected cells; host or cells: HEK293/hNPY2R (G418 selection)
T3 sequence (P49146 1-381): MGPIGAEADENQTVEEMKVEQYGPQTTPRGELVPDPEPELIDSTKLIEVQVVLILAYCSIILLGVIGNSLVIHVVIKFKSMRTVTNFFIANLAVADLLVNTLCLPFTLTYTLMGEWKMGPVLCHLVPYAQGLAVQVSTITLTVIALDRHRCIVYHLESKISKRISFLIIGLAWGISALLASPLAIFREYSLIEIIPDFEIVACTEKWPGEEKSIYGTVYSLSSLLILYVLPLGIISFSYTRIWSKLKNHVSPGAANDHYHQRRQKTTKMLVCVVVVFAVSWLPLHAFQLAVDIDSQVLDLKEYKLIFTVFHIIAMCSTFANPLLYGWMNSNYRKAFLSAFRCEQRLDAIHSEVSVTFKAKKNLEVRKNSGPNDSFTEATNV
Experimental: On the first day, medium was discarded, and the monolayer cells were washed with 10 mL PBS per flask (T225). […] The flask was gently tapped and the cell suspension was pooled. Each flask was rinsed with 10 mL plating medium and centrifuged at 1000 rpm for 5 min. The suspension was pooled and counted. The suspension was resuspended in plating medium at a density of 2.0×10^5 cells/mL for HEK293/hNPY2R. 50 microliters of cells (HEK293/hNPY2R-10,000 cells/well) were transferred into the 384-well plate using Multi-drop dispenser. The plates were incubated at 37° C. overnight. […] The media and reagents were allowed to come to room temperature. Before the dilutions were prepared, the stock solution of stimulating compound in dimethyl sulphoxide (DMSO, Sigma, cat #D2650) was allowed to warm up to 32 C for 5-10 min. […] The cell medium was tapped off with a gentle inversion of the cell plate on a paper towel. 50 μL of stimulation medium was placed per well (each concentration done in four replicates). The plates were incubated at room temperature for 30 min, and the cells were checked under a microscope for toxicity. After 30 minutes of treatment, the stimulation media was discarded and 50 mL/well of Assay Lysis Buffer (provided in the Tropix kit) was added. The plates were incubated for 45 min@37° C. 20 μL of the lysate was transferred from stimulation plates into the pre-coated antibody plates (384-well) from the Tropix kit. 10 μL of AP conjugate and 20 μL of anti-cAMP antibody was added. The plates were incubated at room temperature while shaking for 1 hour. The plates were then washed 5 times with Wash Buffer, 70 μL per well for each wash. The plates were tapped to dry. 30 μL/well of CSPD/Saphire-II RTU substrate/enhancer solution was added and incubated for 45 min @ RT (shake). Signal for 1 sec/well in a Luminometer.

hNPY2R [2] = molecular target: T3, hNPY2R; assay: CaFlux Assay (FLIPR), Y2R; type: cell-based; parameters: expressed in transfected cells; host or cells: HEK-293 stably expressing G protein chimera Gaqi9
Experimental: Hek-293 cells were stably transfected with the G protein chimera Gaqi9 and the hygromycin-B resistance gene were further transfected with the human NPY2 receptor and G418 antibiotic selection. Following selection in both hygromycin-B and G418, individual clones were assayed for their response to PYY. The transfected cells were cultured in DMEM medium supplemented with 10% fetal bovine serum, 50 μg/mL hygromycin-B 2 mM glutamine, 100 U/mL penicillin, 100 μg/mL streptomycin and 250 μg/mL G418. Cells are harvested with trypsin-EDTA and counted using ViaCount reagent. The cell suspension volume is adjusted to 4.8×10^5 cells/mL with complete growth media. Aliquots of 25 μL are dispensed into 384 well Poly-D Lysine coated black/clear microplates (Falcon) and the microplates were placed in a 37° C. CO2 incubator overnight. Loading Buffer (Calcium-3 Assay Kit, Molecular Devices) was prepared by dissolving the contents of one vial (Express Kit) into 1000 mL Hank's Balanced Salt Solution containing 20 mM HEPES and 5 mM probenecid. Aliquots of 25 μL of diluted dye were dispensed into the cell plates and the plates are then incubated for 1 hour at 37° C. During the incubation, test compounds were prepared at 3.5× the desired concentration in HBSS (20 mM HEPES)/0.05% BSA/1% DMSO and transferred to a 384 well plate for use on FLIPR. After incubation, both the cell and compound plates were brought to the FLIPR and 20 μL of the diluted compounds were transferred to the cell plates by the FLIPR. During the assay, fluorescence readings were taken simultaneously from all 384 wells of the cell plate every 1.5 seconds. Five readings were taken to establish a stable baseline, and then 20 μL of sample was rapidly (30 μL/sec) and simultaneously added to each well of the cell plate. The fluorescence was continuously monitored before, during and after sample addition for a total elapsed time of 100 seconds. Responses (increase in peak fluorescence) in each well following addition were determined. The initial fluorescence reading from each well, prior to ligand stimulation, was used as a zero baseline value for the data from that well. The responses are expressed as % of maximal response of the positive control.

Y4R, sequence (P50391 whole entry): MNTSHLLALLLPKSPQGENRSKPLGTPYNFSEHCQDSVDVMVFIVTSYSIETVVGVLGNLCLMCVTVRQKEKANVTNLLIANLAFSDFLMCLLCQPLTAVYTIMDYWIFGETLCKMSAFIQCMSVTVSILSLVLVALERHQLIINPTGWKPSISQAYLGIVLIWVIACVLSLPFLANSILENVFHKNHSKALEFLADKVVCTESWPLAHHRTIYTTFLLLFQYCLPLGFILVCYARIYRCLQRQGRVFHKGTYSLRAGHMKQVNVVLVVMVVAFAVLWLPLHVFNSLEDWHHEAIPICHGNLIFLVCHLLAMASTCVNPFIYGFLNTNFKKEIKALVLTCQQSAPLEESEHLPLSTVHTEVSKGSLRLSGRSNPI

| Compound | NPY release (hypothalamic slices) | EC50 (Y4R) | EC50 (Y1R) | EC50 (Y5R) | Emax (Y5R; read-out: Y5R FLIPR, percentage in parentheses under the EC50) | EC50 (hNPY2R [1]) | EC50 (hNPY2R [2]) |
| --- | --- | --- | --- | --- | --- | --- | --- |
| N=C(N)NCCC[C@H](NC(=O)CC1(CC(=O)N2CCN(C3c4ccccc4NC(=O)c4ccccc43)CC2)CCCC1)C(=O)NCCn1c(=O)n(-c2ccccc2)n(-c2ccccc2)c1=O (stereo partly drawn) [BIIE0246] | increases NPY release |  |  |  |  |  |  |
| CCCCCCCCCCCCCCCC(=O)NCCOCCNC(=O)CCC(=O)NCCCC[C@H](NC(=O)[C@@H](N)[C@@H](C)CC)C(=O)N1CCN(c2ccc3ncn(CC(=O)N[C@@H](CCCNC(=N)N)C(=O)N[C@@H](Cc4c[nH]cn4)C(=O)N[C@@H](Cc4ccc(O)cc4)C(=O)N[C@@H](CC(C)C)C(=O)N[C@@H](CC(N)=O)C(=O)N[C@@H](Cc4c[nH]c5ccccc45)C(=O)N[C@H](C(=O)N[C@H](C(=O)N[C@@H](CCCNC(=N)N)C(=O)N[C@@H](CCC(N)=O)C(=O)N(C)[C@@H](CCCNC(=N)N)C(=O)N[C@@H](Cc4ccc(O)cc4)C(N)=O)[C@@H](C)O)C(C)C)c(=O)c3c2)CC1 [Example 38] |  | > 5 µM | > 5 µM | 644 nM | 83% | 0.17 nM | 3 pM |
| CCCCCCCCCCCC(=O)NCCC(=O)NCCCC[C@H](NC(=O)[C@@H](N)[C@@H](C)CC)C(=O)N1CCN(c2ccc3ncn(CC(=O)N[C@@H](CCCNC(=N)N)C(=O)N[C@@H](Cc4c[nH]cn4)C(=O)N[C@@H](Cc4ccc(O)cc4)C(=O)N[C@@H](CC(C)C)C(=O)N[C@@H](CC(N)=O)C(=O)N[C@@H](Cc4c[nH]c5ccccc45)C(=O)N[C@H](C(=O)N[C@H](C(=O)N[C@@H](CCCNC(=N)N)C(=O)N[C@@H](CCC(N)=O)C(=O)N(C)[C@@H](CCCNC(=N)N)C(=O)N[C@@H](Cc4ccc(O)cc4)C(N)=O)[C@@H](C)O)C(C)C)c(=O)c3c2)CC1 [Example 10] |  | 3.51 µM | > 5 µM | 4740 nM |  | 5.2 nM | 16 pM |

— patent US20100179093A1, “Neoropeptide-2-Receptor (Y-2R) Agonists” (priority 2008, published 2010)
